What was measured:
[1] = Therapeutic index, ratio of CC50 for PBMC to IC50 for HIV1 NL4-3; settings: read-out: Ratio CC50/IC50
[2] = tested on: Human immunodeficiency virus 1; assay: Antiviral activity against HIV1 TEK1 in PBMC; format: functional, organism-based; settings: Human immunodeficiency virus 1, TEK1
[3] = Cytotoxicity against PBMC cells; format: cell-based; settings: human
[4] = tested on: Human immunodeficiency virus 1; assay: Antiviral activity against HIV1 NL4-3 in PBMC; format: functional, organism-based; settings: Human immunodeficiency virus 1, NL4-3
[5] = Therapeutic index, ratio of CC50 for PBMC to IC50 for HIV1 TEK1; settings: read-out: Ratio CC50/IC50
[6] = Inhibition of HIV integrase strand transfer activity by magnesium chloride-based assay; design: species or system Human immunodeficiency virus
[7] = Inhibition of HIV integrase 3'-processing activity by magnesium chloride-based assay; design: species or system Human immunodeficiency virus

IC50 [2] [µM]	IC50 [4] [µM]	IC50 [6] [µM]	IC50 [7] [µM]	SMILES	selectivity ratio [1]	CC50 [3] [µM]	selectivity ratio [5]
8.1	11.8			O=C(/C=C(\O)P(=O)(O)O)c1cc(OCc2ccccc2)cc(OCc2ccccc2)c1	4	46.9	5.8
4	3.2	20.2	> 333	O=C(/C=C(\O)P(=O)(O)O)c1cn(Cc2ccccc2)c(=O)n(Cc2ccccc2)c1=O	> 62	> 200	> 50

Source: ChEMBL document CHEMBL1148834, “A novel diketo phosphonic acid that exhibits specific, strand-transfer inhibition of HIV integrase and anti-HIV activity” (Bioorg Med Chem Lett, 2007)
